Values joined by “and” are separate entries in the source; they are usually repeats but may differ in a detail not shown here. Equal values may be shown once. Read-outs that look alike come from different tables or passages of the source.
Biological target: T1, CHK2 (Homo sapiens, UniProt O96017)
T1 construct: made in house
Assay: CHK2 kinase activity assay (DELFIA, phosphorylation of a CDC25C peptide)
Format: biochemical
Settings: ATP 30 μM, CHK2 1 nM, read-out: IC50, inhibition of CHK2 kinase activity in vitro

T1 sequence (O96017 whole entry): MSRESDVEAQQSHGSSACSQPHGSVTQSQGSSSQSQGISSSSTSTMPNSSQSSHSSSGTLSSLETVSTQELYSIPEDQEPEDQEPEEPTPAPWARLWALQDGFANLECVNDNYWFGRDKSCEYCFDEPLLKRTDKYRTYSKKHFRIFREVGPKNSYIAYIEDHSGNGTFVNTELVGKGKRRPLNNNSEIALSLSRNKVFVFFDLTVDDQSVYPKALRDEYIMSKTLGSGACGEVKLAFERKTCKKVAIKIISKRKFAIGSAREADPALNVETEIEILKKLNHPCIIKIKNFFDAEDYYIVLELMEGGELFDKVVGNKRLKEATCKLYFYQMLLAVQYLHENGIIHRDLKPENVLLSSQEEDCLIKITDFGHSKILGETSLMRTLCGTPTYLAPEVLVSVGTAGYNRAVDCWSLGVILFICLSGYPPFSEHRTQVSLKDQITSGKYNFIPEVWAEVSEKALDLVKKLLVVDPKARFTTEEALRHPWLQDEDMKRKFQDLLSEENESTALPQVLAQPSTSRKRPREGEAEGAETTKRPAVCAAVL

SMILES | IC50 (following further studies) | IC50 (first set of tested compounds) [µM]
CN1CCCC(Nc2nc(-c3ccccc3O)nc3ccccc23)C1 (stereo not drawn) [Compound A-001, 2-[4-(1-Methyl-piperidin-3-yl-amino)-quinazolin-2-yl]-phenol] | 0.3 to 3 µM and 1.6 µM | < 3
CN1CCC(Nc2nc(-c3ccccc3O)nc3ccccc23)CC1 [Compound A-003, 2-[4-(1-Methylpiperidin-4-ylamino)-quinazolin-2-yl]-phenol] | 0.3 to 3 µM | < 3
CN1CCC[C@H](Nc2nc(-c3ccccc3O)nc3ccccc23)C1 [Compound A-007, 2-[4-((S)-1-Methylpiperidin-3-ylamino)-quinazolin-2-yl]-phenol] | 3 to 30 µM | 3 to 30
CN1CCC[C@@H](Nc2nc(-c3ccccc3O)nc3ccccc23)C1 [Compound A-008, 2-[4-((R)-1-Methylpiperidin-3-ylamino)-quinazolin-2-yl]-phenol] | 0.3 to 3 µM | < 3
Oc1ccccc1-c1nc(N[C@H]2CCN(Cc3ccccc3)C2)c2ccccc2n1 [Compound A-011, 2-[4-((S)-1-Benzylpyrrolidin-3-ylamino)-quinazolin-2-yl]-phenol] | 3 to 30 µM | 3 to 30
Oc1ccc(Cl)cc1-c1nc(N[C@@H]2CCCNC2)c2ccccc2n1 [Compound A-013, (R)-4-Chloro-2-(4-(piperidin-3-ylamino)quinazolin-2-yl)phenol] | ≤ 0.3 µM | < 3
Oc1ccc(F)cc1-c1nc(N[C@@H]2CCCNC2)c2ccccc2n1 [Compound A-014, (R)-4-Fluoro-2-(4-(piperidin-3-ylamino)quinazolin-2-yl)phenol] | ≤ 0.3 µM | < 3
Oc1ccccc1-c1nc(N[C@H]2CCNC2)c2cc(Br)ccc2n1 [Compound A-016, (S)-2-(6-Bromo-4-(pyrrolidin-3-ylamino)quinazolin-2-yl)phenol] | 0.3 to 3 µM | < 3
Oc1ccccc1-c1nc(N[C@H]2CCNC2)c2ccc(-c3ccccc3)cc2n1 [Compound A-020, (S)-2-(7-phenyl-4-(pyrrolidinyl-3-ylamino)quinazolin-2-yl)phenol] | 0.3 to 3 µM | < 3
CC(C)(C)c1ccc(O)c(-c2nc(N[C@H]3CCNC3)c3ccccc3n2)c1 [Compound A-022, (S)-4-tert-Butyl-2-(4-(pyrrolidin-3-ylamino)quinazolin-2-yl)phenol] | 3 to 30 µM | 3 to 30
Oc1ccccc1-c1nc(N[C@H]2CCNC2)c2cc(-c3ccccc3)ccc2n1 [Compound A-025, (S)-2-(6-Phenyl-4-(pyrrolidinyl-3-ylamino)quinazolin-2-yl)phenol] | 3 to 30 µM | 3 to 30
COC(=O)[C@H]1C[C@H](Nc2nc(-c3cc(Cl)ccc3O)nc3ccccc23)CN1 [Compound A-026, (2R,4S)-Methyl 4-(2-(5-chloro-2-hydroxyphenyl)quinazolin-4-ylamino)pyrrolidine-2-carboxylate] | ≤ 0.3 µM | < 3
Oc1ccccc1-c1nc(N[C@H]2CCNC2)c2ccc(-c3ccc(CN4CCOCC4)cc3)cc2n1 [Compound A-027, (S)-2-(7-(4-(Morpholinomethyl)phenyl)-4-(pyrrolidin-3-ylamino)quinazolin-2-yl)phenol] | ≤ 0.3 µM | < 3
Oc1ccccc1-c1nc(N[C@H]2CCNC2)c2cc(-c3ccc(CN4CCOCC4)cc3)ccc2n1 [Compound A-028, (S)-2-(6-(4-(Morpholinomethyl)phenyl)-4-(pyrrolidin-3-ylamino)quinazolin-2-yl)phenol] | 0.3 to 3 µM | < 3
Oc1ccccc1-c1nc(N[C@H]2CCNC2)c2cc(-c3cn[nH]c3)ccc2n1 [Compound A-029, (S)-2-(6-(1H-Pyrazol-4-yl)-4-(pyrrolidin-3-ylamino)quinazolin-2-yl)phenol] | 0.3 to 3 µM | < 3
O=C(NCc1ccccc1)[C@H]1C[C@H](Nc2nc(-c3ccccc3O)nc3ccccc23)CN1 [Compound A-031, (2R,4S)-N-Benzyl-4-(2-(2-hydroxyphenyl)quinazolin-4-ylamino)pyrrolidine-2-carboxamide] | 0.3 to 3 µM | < 3
CNC(=O)[C@H]1C[C@H](Nc2nc(-c3ccccc3O)nc3ccccc23)CN1 [Compound A-032, (2R,4S)-4-(2-(2-Hydroxyphenyl)quinazolin-4-ylamino)-N-methylpyrrolidine-2-carboxamide] | 0.3 to 3 µM | < 3
COC(=O)c1ccc(O)c(-c2nc(N[C@H]3CCNC3)c3ccccc3n2)c1 [Compound A-033, (S)-Methyl 4-hydroxy-3-(4-(pyrrolidin-3-ylamino)quinazolin-2-yl)benzoate] | ≤ 0.3 µM | < 3

Next, values leading:

IC50 (following further studies) | IC50 (first set of tested compounds) [µM] | SMILES
0.3 to 3 µM |  | Oc1ccc(Cl)cc1-c1nc(N[C@@H]2CNC[C@H]2c2ccccc2)c2ccccc2n1 (relative stereo) [Compound A-063, 4-Chloro-2-(4-(trans-4-phenylpyrrolidin-3-ylamino)quinazolin-2-yl)phenol]
0.3 to 3 µM |  | Oc1ccc(F)cc1-c1nc(N[C@@H]2CNC[C@H]2c2cccc(Cl)c2)c2ccccc2n1 (relative stereo) [Compound A-083]
0.3 to 3 µM |  | O=C(O)[C@@H]1CNC[C@H]1Nc1nc(-c2cc(F)ccc2O)nc2ccccc12 (relative stereo) [Compound A-089, trans-4-(2-(5-Fluoro-2-hydroxyphenyl)quinazolin-4-ylamino)pyrrolidine-3-carboxylic acid]
≤ 0.3 µM |  | COc1ccc([C@@H]2CNC[C@H]2Nc2nc(-c3cc(F)ccc3O)nc3ccccc23)cc1 (relative stereo) [Compound A-090, 4-Fluoro-2-(4-(trans-4-(4-methoxyphenyl)pyrrolidin-3-ylamino)quinazolin-2-yl)phenol]
≤ 0.3 µM |  | COc1cccc([C@@H]2CNC[C@H]2Nc2nc(-c3cc(F)ccc3O)nc3ccccc23)c1 (relative stereo) [Compound A-091, 4-Fluoro-2-(4-(trans-4-(3-methoxyphenyl)pyrrolidin-3-ylamino)quinazolin-2-yl)phenol]
0.3 to 3 µM |  | COc1ccccc1[C@@H]1CNC[C@H]1Nc1nc(-c2cc(F)ccc2O)nc2ccccc12 (relative stereo) [Compound A-092, 4-Fluoro-2-(4-trans(4-(2-methoxyphenyl)pyrrolidin-3-ylamino)quinazolin-2-yl)phenol]
≤ 0.3 µM |  | C[C@@H]1CNC[C@H]1Nc1nc(-c2cc(F)ccc2O)nc2ccccc12 (relative stereo) [Compound A-099, 4-Fluoro-2-(4-(trans-4-methylpyrrolidin-3-ylamino)quinazolin-2-yl)phenol]
3 to 30 µM and 3.8 µM | 3 to 30 | N[C@@H]1CCCC[C@@H]1Nc1nc(-c2ccccc2O)nc2ccccc12 (relative stereo) [Compound B-002]
0.3 to 3 µM | < 3 | N[C@@H]1CCCC[C@H]1Nc1nc(-c2ccccc2O)nc2ccccc12 (relative stereo) [Compound B-003, 2-[4-(trans-2-Aminocyclohexylamino)-quinazolin-2-yl]-phenol]
≤ 0.3 µM | < 3 | O=C([C@H]1C[C@H](Nc2nc(-c3ccccc3O)nc3ccccc23)CN1)N1CCCC1 [Compound A-034, ((2R,4S)-4-(2-(2-Hydroxyphenyl)quinazolin-4-ylamino)pyrrolidin-2-yl)(pyrrolidin-1-yl)methanone]
0.3 to 3 µM | < 3 | O=C([C@H]1C[C@H](Nc2nc(-c3ccccc3O)nc3ccccc23)CN1)N1CCNCC1 [Compound A-035, ((2R,4S)-4-(2-(2-Hydroxyphenyl)quinazolin-4-ylamino)pyrrolidin-2-yl)(piperazin-1-yl)methanone]
0.3 to 3 µM | < 3 | CN1CCN(C(=O)[C@H]2C[C@H](Nc3nc(-c4ccccc4O)nc4ccccc34)CN2)CC1 [Compound A-036, ((2R,4S)-4-(2-(2-Hydroxyphenyl)quinazolin-4-ylamino)pyrrolidin-2-yl)(4-methylpiperazin-1-yl)methanone]
≤ 0.3 µM | < 3 | O=C([C@H]1C[C@H](Nc2nc(-c3ccccc3O)nc3ccccc23)CN1)N1CCCCC1 [Compound A-037, ((2R,4S)-4-(2-(2-Hydroxyphenyl)quinazolin-4-ylamino)pyrrolidin-2-yl)(piperidin-1-yl)methanone]
≤ 0.3 µM | < 3 | O=C([C@H]1C[C@H](Nc2nc(-c3ccccc3O)nc3ccccc23)CN1)N1CCOCC1 [Compound A-038, ((2R,4S)-4-(2-(2-Hydroxyphenyl)quinazolin-4-ylamino)pyrrolidin-2-yl)(morpholino)methanone]
0.3 to 3 µM | < 3 | O=C(Nc1ccccc1)[C@H]1C[C@H](Nc2nc(-c3ccccc3O)nc3ccccc23)CN1 [Compound A-039, (2R,4S)-4-(2-(2-Hydroxyphenyl)quinazolin-4-ylamino)-N-phenylpyrrolidine-2-carboxamide]
≤ 0.3 µM | < 3 | Oc1ccc(Br)cc1-c1nc(N[C@H]2CCNC2)c2ccccc2n1 [Compound A-041, (S)-4-Bromo-2-(4-(pyrrolidin-3-ylamino)quinazolin-2-yl)phenol]
≤ 0.3 µM | < 3 | CN(c1nc(-c2cc(F)ccc2O)nc2ccccc12)[C@H]1CCNC1 [Compound A-043, (S)-4-Fluoro-2-(4-(methyl(pyrrolidin-3-yl)amino)quinazolin-2-yl)phenol]
≤ 0.3 µM | < 3 | CN(c1nc(-c2cc(Cl)ccc2O)nc2ccccc12)[C@H]1CCNC1 [Compound A-044, (S)-4-Chloro-2-(4-(methyl(pyrrolidin-3-yl)amino)quinazolin-2-yl)phenol]
≤ 0.3 µM | < 3 | CN(C)C(=O)[C@H]1C[C@H](Nc2nc(-c3cc(F)ccc3O)nc3ccccc23)CN1 [Compound A-046, (2R,4S)-4-(2-(5-Fluoro-2-hydroxyphenyl)quinazolin-4-ylamino)-N,N-dimethylpyrrolidine-2-carboxamide]
0.3 to 3 µM | < 3 | CN(CCO)C(=O)[C@H]1C[C@H](Nc2nc(-c3ccccc3O)nc3ccccc23)CN1 [Compound A-047, (2R,4S)-N-(2-Hydroxyethyl)-4-(2-(2-hydroxyphenyl)quinazolin-4-ylamino)-N-methylpyrrolidine-2-carboxamide]

From patent US8324226B2, “Therapeutic oxy-phenyl-aryl compounds and their use” (Cancer Research Technology Limited, priority 2007, dated 2012)
